Measurements from patent US11214803B2, “Modulators of YAP1 expression” (Ionis Pharmaceuticals, Inc., priority 2019, dated 2022).
Strand notation (5' to 3'): a small letter for the sugar, then the base; units joined by * are phosphorothioate-linked, units joined directly phosphodiester-linked; [ ] holds rarer units or linkages, { } end groups; capitals alone tell only the bases. e = 2'-O-(2-methoxyethyl) (MOE); k = constrained ethyl (cEt); [5mC] = 5-methylcytosine; d = 2'-deoxy (DNA); m = 2'-O-methyl

Tested on: Yap1 mRNA
Assay: Dose-dependent inhibition of human Yap1 in SNU-449 cells (Example 9, RTS36584)
Assay type: cell-based
Conditions: free uptake; for % UTC (Yap1 mRNA): approximately 48 hours; for IC50: linear regression on a log/linear plot
Method in brief: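 Read-out was Yap1 mRNA (primer-probe RTS36584) normalised to total RNA by RIBOGREEN, given as % of untreated cells, with IC50 fitted by linear regression of log/linear data. Oligonucleotides were dosed by free uptake to SNU-449 cells, 10,000/well, for ~48 h.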

Substance	% UTC (Yap1 mRNA) (31.3 nM) [% UTC]	% UTC (Yap1 mRNA) (125.0 nM) [% UTC]	% UTC (Yap1 mRNA) (500.0 nM) [% UTC]	% UTC (Yap1 mRNA) (2000.00 nM) [% UTC]	IC50 [nM]
1198960 (kA*kA*dG*dT*dG*dT*dA*dT*dG*dT*d[5mC]*kA*dG*kA*dA*kG; antisense) [compound 1198960]	77	35	8	2	100
1198918 (kG*k[5mC]*dA*d[5mC]*dT*dT*dT*dT*dA*d[5mC]*dA*kT*dT*kA*dG*kG) [compound 1198918]	60	33	13	9	50
1198243 (kG*kA*dT*dT*dT*dA*dG*dG*dA*dT*dG*e[5mC]*eA*eT*kG*kG; antisense) [compound 1198243]	55	28	10	5	< 30
1198213 (kA*kT*dA*dT*dT*dA*dG*dA*dG*dT*dA*eT*eG*eT*kG*kG) [compound 1198213]	91	33	11	3	100
1198423 (TCTTATATGGTTTTGT; all C 5-methyl, all phosphorothioate, sugars by position not given here; cEt/MOE mixed gapmer, notation at position 4 garbled) [compound 1198423]	58	35	15	6	50
1198202 (kG*kA*dA*dA*dT*dT*dG*dT*d[5mC]*dT*d[5mC]*eA*eT*eG*k[5mC]*k[5mC]; antisense) [compound 1198202]	83	46	16	5	100
1198911 (kG*kA*dG*dG*dT*dA*dT*dA*dA*d[5mC]*dT*kG*dG*kG*d[5mC]*kA; antisense) [compound 1198911]	62	31	12	7	50
1198398 (G_{ks}^{m}C_{ds}A_{ds}C_{ds}T_{ds}T_{ds}T_{ds}T_{ds}A_{ds}^{m}C_{ds}A_{ds}T_{ks}T_{es}A_{ks}G_{es}G_{k}; cEt, 2'-MOE, 5-methylcytosine, phosphorothioate modifications, as printed in the source, key not given here) [compound 1198398]	73	55	33	18	200
1198212 (kT*kA*dT*dT*dA*dG*dA*dG*dT*dA*dT*eG*eT*eG*kG*k[5mC]) [compound 1198212]	74	35	10	2	100
1197214 (kA*kG*kT*dG*dT*dA*dT*dG*dT*d[5mC]*dA*dG*dA*kA*kG*kA; antisense) [compound 1197214]	88	31	7	1	100
1198268 (kA*kA*dG*dT*dG*dT*dA*dT*dG*dT*d[5mC]*eA*eG*eA*kA*kG; antisense) [compound 1198268]	83	52	17	5	100
1198406 (kG*d[5mC]*dT*dT*dT*dG*dG*dA*dA*dG*dA*kT*e[5mC]*kT*eG*kA; antisense) [compound 1198406]	70	57	31	16	200
1198422 (k[5mC]*dT*dT*dA*dT*dA*dT*dG*dG*dT*dT*kT*eT*kG*eT*kG) [compound 1198422]	88	60	30	19	200
1198500 (kA*kT*dT*dT*dA*dG*dG*dA*dT*dG*d[5mC]*eA*kT*eG*kG*eT; antisense) [compound 1198500]	72	51	34	15	200
1198555 (kA*kT*kT*dA*dG*dA*dG*dT*dA*dT*dG*dT*kG*kG*k[5mC]*eA; antisense) [compound 1198555]	73	40	19	9	100
1198211 (kA*kT*dT*dA*dG*dA*dG*dT*dA*dT*dG*eT*eG*eG*k[5mC]*kA) [compound 1198211]	72	37	23	12	100

Substance	% UTC (Yap1 mRNA) (31.3 nM) [% UTC]	% UTC (Yap1 mRNA) (125.0 nM) [% UTC]	% UTC (Yap1 mRNA) (500.0 nM) [% UTC]	% UTC (Yap1 mRNA) (2000.00 nM) [% UTC]	IC50 [nM]
1197271 (kT*kT*kT*dA*mA*dA*dG*dT*dG*dT*dA*dT*dG*kT*k[5mC]*kA; antisense) [compound 1197271]	70	47	19	8	100
1198596 (k[5mC]*kT*k[5mC]*dT*dT*dA*dT*dA*dT*dG*dG*dT*kT*kT*kT*eG; antisense) [compound 1198596]	73	40	14	4	100
1074462 (kG*kG*kA*dA*dA*dT*dT*dG*dT*d[5mC]*dT*d[5mC]*dA*kT*kG*k[5mC]; antisense) [compound 1074462]	90	38	13	3	100
1197213 (kT*kG*kT*dA*dT*dG*dT*d[5mC]*dA*dG*dA*dA*dG*kA*kG*kT; antisense) [compound 1197213]	87	46	14	2	100
1197215 (kA*kA*kG*dT*dG*dT*dA*dT*dG*dT*d[5mC]*dA*dG*kA*kA*kG) [compound 1197215]	56	31	7	2	40
1200820 (kG*kG*kA*dA*dG*mA*dT*d[5mC]*dT*dG*dA*dA*dA*k[5mC]*kT*k[5mC]; antisense) [compound 1200820]	104	69	36	17	300
1200858 (kA*kA*kG*dT*dG*mU*dA*dT*dG*dT*d[5mC]*dA*dG*kA*kA*kG; antisense) [compound 1200858]	71	39	14	4	100
1198724 (kA*eG*kA*dG*dT*dA*dT*dG*dT*dG*dG*d[5mC]*eA*eA*kT*kA; antisense) [compound 1198724]	56	25	8	3	< 30
1198786 (kT*eG*kT*dA*dT*dG*dT*d[5mC]*dA*dG*dA*dA*eG*eA*kG*kT) [compound 1198786]	63	32	11	2	100
1198900 (kA*kG*dA*dG*dT*dA*dT*dG*dT*dG*dG*k[5mC]*dA*kA*dT*kA; antisense) [compound 1198900]	69	36	18	7	100
1200797 (kA*kT*kT*dA*dG*mA*dG*dT*dA*dT*dG*dT*dG*kG*k[5mC]*kA; antisense) [compound 1200797]	84	52	23	11	200
1198526 (kA*kA*dG*dT*dG*dT*dA*dT*dG*dT*d[5mC]*eA*kG*eA*kA*eG; antisense) [compound 1198526]	61	30	8	2	40
1198527 (kA*kA*dA*dG*dT*dG*dT*dA*dT*dG*dT*e[5mC]*kA*eG*kA*eA; antisense) [compound 1198527]	63	35	12	3	100
1198295 (kT*kA*kG*dA*dG*dT*dA*dT*dG*dT*dG*dG*k[5mC]*eA*kA*eT; antisense) [compound 1198295]	82	47	19	8	100
1198460 (kG*kA*dA*dA*dT*dT*dG*dT*d[5mC]*dT*d[5mC]*eA*kT*eG*k[5mC]*e[5mC]; antisense) [compound 1198460]	60	49	28	11	100
